The record followed here is patent US9790196B2, “Lysine demethylase inhibitors for diseases and disorders associated with Flaviviridae” (Oryzon Genomics, S.A., priority 2010, dated 2017).

For orientation: IC50 means the concentration needed to halve the response being measured.

Like-named read-outs stand apart in the source and are kept apart here.

For series [1], the system named is H3K4 methylation in SH-SY5Y cells. Description: Western blot for dimethylated H3K4 in SH-SY5Y cells. In kind it is cell-based. From the text:
[…]. B-actin was used as a loading control.
For orientation: A western blot detects proteins with antibodies after separation by electrophoresis.

A short description of series [2]: Maximum tolerated dose study. The format is in vivo. The conditions noted are these: mice, IP, 20, 40 and 60 mg/kg daily for 5 days. How it is done:
(§1) Maximum tolerated dose studies and pharmacokinetics for several LSD1 inhibitors were assessed to determine if the compounds can be administered to mammals safely at doses that are expected to achieve therapeutic effects. In particular, Compound X was given to mice IP at 20 mg/kg, 40 mg/kg and 60 mg/kg daily for 5 days in a MTD study conducted at Leitat.

Series [3] deals with HCV RNA replicon in Huh7 ET (luc-ubi-neo/ET) cells. Briefly: microbe, parasite or virus in culture. In kind it is cell-based. How it is done:
Anti-HCV assays were conducted at Southern Research Organization using an HCV RNA replicon with a luciferase reporter.
Southern Research reports that they use cell line Huh7 ET (luc-ubi-neo/ET) containing a HCV RNA replicon with a luciferase (LUC) reporter. […] This composition of the replicon is shown as follows
The HCV RNA replicon ET contains the 5′ NTR (IRES) of HCV (5′) which drives the production of a firefly luciferase (Luc), ubiquitin (Ubiq), and neomycin phosphotransferase (Neo) fusion protein. Ubiquitin cleavage releases the LUC and Neo genes. The EMCV IRES element (E-I) controls the translation of the HCV […] proteins NS3-NS5 and is located between Neo and NS3. The NS3 protein cleaves the HCV polyprotein to release the mature NS3, NS4A, NS4B, NS5A and NS5B proteins that are required for HCV replication. At the 3′ end of the replicon is the authentic 3′ NTR of HCV. The LUC reporter is used as an indirect measure of HCV replication. The activity of the LUC reporter is directly proportional to HCV RNA levels and positive control antiviral compounds behave comparably using either LUC or RNA endpoints.
(§2) The effect of drug added in triplicate at concentrations of from e.g., 0 to 100 uM using half log dilutions on HCV RNA-derived LUC activity and cytotoxicity. Human interferon alpha-2b is included in each run as a positive control compound. Subconfluent cultures of the ET line are plated out into 96-well plates that are dedicated for the analysis of cell numbers (cytotoxicity) or antiviral activity and the next day drugs are added to the appropriate wells. Cells are processed 72 hr later when the cells are still subconfluent. Compound cytotoxicity is assessed as the percent viable cells relative to the untreated cell controls.

Series [4] relates to Huh7 ET (luc-ubi-neo/ET) cells. Description: in vitro. The conditions noted are these: read-out: Cytotoxicity IC50; 72 hr. As for the experimental part: as §2
A further series in a line: in vitro. The conditions noted are these: human, Cytotoxicity IC50, 72 hr. As for the experimental part:
as §2

The nature of a further series: PK studies (Cmax). In kind it is in vivo, mice. Particulars: at the MTD study doses. How it is done: as §1

Turning to `NC(=O)CNC1CC1c1ccc(OCc2ccccc2)cc1` (centres unmarked) [Dual-1], the “potency at increasing global dimethylated H3K4 levels as compared to tranylcypromine” value in series [1] is on record as at least 10 fold.
In the case of `NC1CC1c1ccc(-c2cccc(O)c2)cc1` (centres unmarked) [Compound X], in series [2], the “tolerability in MTD study” value is on record as “tolerated with acceptable toxicity”. For the same compound, the EC50 in series [3] (HCV RNA-derived LUC activity, 72 hr, read-out: Antiviral Activity EC50) was below 320 nM; in series [3] (Hepatitis C virus, Huh7 ET, 72 h, HCV RNA-derived LUC activity, 72 hr, read-out: Antiviral Activity EC50), 490 nM; in series [3] (Hepatitis C virus, Huh7 ET, read-out: anti-HCV activity in HCV RNA replication assay), 300 to 500 nM. The IC50 in series [4] stood at 50600 nM; in the series “in vitro”, 54800 nM. In addition, the Cmax result in the series “PK studies (Cmax)” is recorded as “expected to result in therapeutic levels”.
